What was measured:
Type in all cases: in vivo
[1] = tested on: Italian ryegrass (Lolium multiflorum); assay: Test A preemergence, visual injury rating; settings: 0 to 100 scale (0 no effect, 100 complete control)
In short: (§1)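 Visual injury scored 0–100 (100 = complete control) against untreated controls about 10 days after treatment in a greenhouse. Test chemicals, formulated with surfactant in non-phytotoxic solvent, were sprayed on soil preemergence or on 2-10 cm, one- to two-leaf plants postemergence.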

[2] = tested on: barnyardgrass (Echinochloa crus-galli); assay: Test A preemergence, visual injury rating; settings: 0 to 100 scale (0 no effect, 100 complete control)
In short: as §1

[3] = tested on: giant foxtail (Setaria faberii); assay: Test A preemergence, visual injury rating; settings: 0 to 100 scale (0 no effect, 100 complete control)
In short: as §1

kochia (Kochia scoparia) [4] = assay: Test A preemergence, visual injury rating; settings: 0 to 100 scale (0 no effect, 100 complete control)
In short: as §1

[5] = tested on: pigweed (Amaranthus retroflexus); assay: Test A preemergence, visual injury rating; settings: 0 to 100 scale (0 no effect, 100 complete control)
In short: as §1

[6] = tested on: ragweed (common ragweed, Ambrosia elatior); assay: Test A preemergence, visual injury rating; settings: 0 to 100 scale (0 no effect, 100 complete control)
In short: as §1

[7] = tested on: Italian ryegrass (Lolium multiflorum); assay: Test A postemergence, visual injury rating; settings: 0 is no effect, 100 is complete control
Text: (§2) Seeds of plant species selected from barnyardgrass (Echinochloa crus-galli), kochia (Kochia scoparia), ragweed (common ragweed, Ambrosia elatior), Italian ryegrass (Lolium multiflorum), large (Lg) crabgrass (Digitaria sanguinalis), giant foxtail (Setaria faberii), morningglory (Ipomoea spp.), pigweed (Amaranthus retroflexus), velvetleaf (Abutilon theophrasti), wheat (Triticum aestivum), and corn (Zea mays) were planted into a blend of loam soil and sand and treated preemergence with a directed soil spray using test chemicals formulated in a non-phytotoxic solvent mixture which included a surfactant.
(§3) At the same time, plants selected from these crop and weed species and also blackgrass (Alopecurus myosuroides), and galium (catchweed bedstraw, Galium aparine) were planted in pots containing the same blend of loam soil and sand and treated with postemergence applications of test chemicals formulated in the same manner. Plants ranged in height from 2 to 10 cm and were in the one- to two-leaf stage for the postemergence treatment. Treated plants and untreated controls were maintained in a greenhouse for approximately 10 days, after which time all treated plants were compared to untreated controls and visually evaluated for injury. Plant response ratings, summarized in Table A, are based on a 0 to 100 scale where 0 is no effect and 100 is complete control. A dash (-) response means no test result.

[8] = tested on: barnyardgrass (Echinochloa crus-galli); assay: Test A postemergence, visual injury rating; settings: 0 is no effect, 100 is complete control
Text: as §2, §3

[9] = tested on: blackgrass (Alopecurus myosuroides); assay: Test A postemergence, visual injury rating; settings: 0 is no effect, 100 is complete control
Text: as §2, §3

corn (Zea mays) = assay: Test A postemergence, visual injury rating; settings: 0 is no effect, 100 is complete control
Text: as §2, §3

[10] = tested on: galium (catchweed bedstraw, Galium aparine); assay: Test A postemergence, visual injury rating; settings: 0 is no effect, 100 is complete control
Text: as §2, §3

[11] = tested on: giant foxtail (Setaria faberii); assay: Test A postemergence, visual injury rating; settings: 0 is no effect, 100 is complete control
Text: as §2, §3

kochia (Kochia scoparia) [12] = assay: Test A postemergence, visual injury rating; settings: 0 is no effect, 100 is complete control
Text: as §2, §3

[13] = tested on: pigweed (Amaranthus retroflexus); assay: Test A postemergence, visual injury rating; settings: 0 is no effect, 100 is complete control
Text: as §2, §3

[14] = tested on: ragweed (common ragweed, Ambrosia elatior); assay: Test A postemergence, visual injury rating; settings: 0 is no effect, 100 is complete control
Text: as §2, §3

[15] = tested on: wheat (Triticum aestivum); assay: Test A postemergence, visual injury rating; settings: 0 is no effect, 100 is complete control
Text: as §2, §3

[16] = tested on: barnyardgrass (Echinochloa crus-galli); assay: Test B flooded paddy test, plant response rating; settings: 250 g ai/ha; Flood; scale of 0 to 100 where 0 is no effect and 100 is complete control; 13 to 15 days
In short: (§4)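 Compound was added to standing water 3 cm above soil, flood maintained, and plants held in a greenhouse before visual scoring against controls at 13 to 15 days.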

[17] = tested on: ducksalad (Heteranthera limosa); assay: Test B flooded paddy test, plant response rating; settings: 250 g ai/ha; Flood; scale of 0 to 100 where 0 is no effect and 100 is complete control; 13 to 15 days
In short: as §4

rice (Oryza sativa) = assay: Test B flooded paddy test, plant response rating; settings: 250 g ai/ha; Flood; scale of 0 to 100 where 0 is no effect and 100 is complete control; 13 to 15 days
In short: as §4

[18] = tested on: sedge, umbrella (small-flower umbrella sedge, Cyperus difformis); assay: Test B flooded paddy test, plant response rating; settings: 250 g ai/ha; Flood; scale of 0 to 100 where 0 is no effect and 100 is complete control; 13 to 15 days
In short: as §4

CC(C)=CCOC(=O)c1c(Br)cccc1Oc1ncc(Cl)cn1 [Compound 11]
60: Pigweed plant response rating (0 to 100 scale) ([13]; 500 g ai/ha)
100: Foxtail, Giant plant response rating ([3]; 500 g ai/ha)
40: Foxtail, Giant plant response rating ([3]; 125 g ai/ha) | Kochia plant response rating (0 to 100 scale) (kochia (Kochia scoparia) [12]; 500 g ai/ha)
10: Barnyardgrass plant response rating (0 to 100 scale) ([8]; 125 g ai/ha) | Corn plant response rating (0 to 100 scale) (corn (Zea mays); 500 g ai/ha) | Galium plant response rating (0 to 100 scale) ([10]; 125 g ai/ha) | Pigweed plant response rating (0 to 100 scale) ([13]; 125 g ai/ha)
0: Ryegrass, Italian plant response rating ([1]; 125 g ai/ha) | Ryegrass, Italian plant response rating ([1]; 500 g ai/ha) | Barnyardgrass plant response rating ([2]; 125 g ai/ha) | Kochia plant response rating (kochia (Kochia scoparia) [4]; 125 g ai/ha) | Kochia plant response rating (kochia (Kochia scoparia) [4]; 500 g ai/ha) | Pigweed plant response rating ([5]; 125 g ai/ha) | Ragweed plant response rating ([6]; 125 g ai/ha) | Ragweed plant response rating ([6]; 500 g ai/ha) | Ryegrass, Italian plant response rating (0 to 100 scale) ([7]; 125 g ai/ha) | Ryegrass, Italian plant response rating (0 to 100 scale) ([7]; 500 g ai/ha) | Blackgrass plant response rating (0 to 100 scale) ([9]; 125 g ai/ha) | Corn plant response rating (0 to 100 scale) (corn (Zea mays); 125 g ai/ha) | Kochia plant response rating (0 to 100 scale) (kochia (Kochia scoparia) [12]; 125 g ai/ha) | Ragweed plant response rating (0 to 100 scale) ([14]; 125 g ai/ha) | Ragweed plant response rating (0 to 100 scale) ([14]; 500 g ai/ha) | Wheat plant response rating (0 to 100 scale) ([15]; 125 g ai/ha) | Wheat plant response rating (0 to 100 scale) ([15]; 500 g ai/ha) | Plant response rating, Barnyardgrass [16] | Plant response rating, Ducksalad [17] | Plant response rating, Rice (rice (Oryza sativa)) | Plant response rating, Sedge, Umbrella [18]
20: Pigweed plant response rating ([5]; 500 g ai/ha) | Barnyardgrass plant response rating (0 to 100 scale) ([8]; 500 g ai/ha) | Blackgrass plant response rating (0 to 100 scale) ([9]; 500 g ai/ha) | Galium plant response rating (0 to 100 scale) ([10]; 500 g ai/ha) | Foxtail, Giant plant response rating (0 to 100 scale) ([11]; 125 g ai/ha) | Foxtail, Giant plant response rating (0 to 100 scale) ([11]; 500 g ai/ha)
30: Barnyardgrass plant response rating ([2]; 500 g ai/ha)

CC(=O)c1c(Br)cccc1Oc1ncc(Cl)cn1 [Compound 12]
80: Barnyardgrass plant response rating ([2]; 1000 g ai/ha) | Ragweed plant response rating ([6]; 1000 g ai/ha) | Barnyardgrass plant response rating (0 to 100 scale) ([8]; 1000 g ai/ha) | Galium plant response rating (0 to 100 scale) ([10]; 1000 g ai/ha) | Kochia plant response rating (0 to 100 scale) (kochia (Kochia scoparia) [12]; 1000 g ai/ha)
20: Corn plant response rating (0 to 100 scale) (corn (Zea mays); 1000 g ai/ha)
70: Foxtail, Giant plant response rating (0 to 100 scale) ([11]; 1000 g ai/ha)
40: Ryegrass, Italian plant response rating ([1]; 1000 g ai/ha)
0: Kochia plant response rating (kochia (Kochia scoparia) [4]; 1000 g ai/ha) | Wheat plant response rating (0 to 100 scale) ([15]; 1000 g ai/ha) | Plant response rating, Barnyardgrass [16] | Plant response rating, Ducksalad [17] | Plant response rating, Rice (rice (Oryza sativa)) | Plant response rating, Sedge, Umbrella [18]
60: Ragweed plant response rating (0 to 100 scale) ([14]; 1000 g ai/ha)
50: Ryegrass, Italian plant response rating (0 to 100 scale) ([7]; 1000 g ai/ha) | Blackgrass plant response rating (0 to 100 scale) ([9]; 1000 g ai/ha)
100: Foxtail, Giant plant response rating ([3]; 1000 g ai/ha) | Pigweed plant response rating ([5]; 1000 g ai/ha) | Pigweed plant response rating (0 to 100 scale) ([13]; 1000 g ai/ha)

CC(CN(C)C(=O)c1c(Br)cccc1Oc1ncc(Cl)cn1)C(F)(F)F (centres unmarked) [Compound 18]
0: Ryegrass, Italian plant response rating ([1]; 125 g ai/ha) | Ryegrass, Italian plant response rating ([1]; 500 g ai/ha) | Barnyardgrass plant response rating ([2]; 125 g ai/ha) | Barnyardgrass plant response rating ([2]; 500 g ai/ha) | Foxtail, Giant plant response rating ([3]; 125 g ai/ha) | Foxtail, Giant plant response rating ([3]; 500 g ai/ha) | Kochia plant response rating (kochia (Kochia scoparia) [4]; 125 g ai/ha) | Ragweed plant response rating ([6]; 125 g ai/ha) | Ragweed plant response rating ([6]; 500 g ai/ha) | Ryegrass, Italian plant response rating (0 to 100 scale) ([7]; 125 g ai/ha) | Ryegrass, Italian plant response rating (0 to 100 scale) ([7]; 500 g ai/ha) | Barnyardgrass plant response rating (0 to 100 scale) ([8]; 125 g ai/ha) | Barnyardgrass plant response rating (0 to 100 scale) ([8]; 500 g ai/ha) | Blackgrass plant response rating (0 to 100 scale) ([9]; 125 g ai/ha) | Blackgrass plant response rating (0 to 100 scale) ([9]; 500 g ai/ha) | Corn plant response rating (0 to 100 scale) (corn (Zea mays); 125 g ai/ha) | Corn plant response rating (0 to 100 scale) (corn (Zea mays); 500 g ai/ha) | Galium plant response rating (0 to 100 scale) ([10]; 125 g ai/ha) | Galium plant response rating (0 to 100 scale) ([10]; 500 g ai/ha) | Foxtail, Giant plant response rating (0 to 100 scale) ([11]; 125 g ai/ha) | Foxtail, Giant plant response rating (0 to 100 scale) ([11]; 500 g ai/ha) | Kochia plant response rating (0 to 100 scale) (kochia (Kochia scoparia) [12]; 125 g ai/ha) | Ragweed plant response rating (0 to 100 scale) ([14]; 125 g ai/ha) | Ragweed plant response rating (0 to 100 scale) ([14]; 500 g ai/ha) | Wheat plant response rating (0 to 100 scale) ([15]; 125 g ai/ha) | Wheat plant response rating (0 to 100 scale) ([15]; 500 g ai/ha) | Plant response rating, Barnyardgrass [16] | Plant response rating, Ducksalad [17] | Plant response rating, Rice (rice (Oryza sativa)) | Plant response rating, Sedge, Umbrella [18]
20: Pigweed plant response rating (0 to 100 scale) ([13]; 500 g ai/ha)
10: Kochia plant response rating (kochia (Kochia scoparia) [4]; 500 g ai/ha) | Pigweed plant response rating ([5]; 125 g ai/ha) | Kochia plant response rating (0 to 100 scale) (kochia (Kochia scoparia) [12]; 500 g ai/ha) | Pigweed plant response rating (0 to 100 scale) ([13]; 125 g ai/ha)
40: Pigweed plant response rating ([5]; 500 g ai/ha)

— patent publication US11053204B2, “Pyrimidinyloxy benzene derivatives as herbicides” (FMC Corporation, priority 2015, dated 2021)
